Assays:
[1] = biological target: nAChRs (L. migratoria manilensis α1 and R. norvegicus β2) (Locusta migratoria manilensis, UniProt P12390+W6ECM5); experiment: Two-electrode voltage-clamp agonist dose-response on nAChRs expressed in Xenopus oocytes, with or without Na+/K+ ATPase; assay type: cell-based; conditions: for effect of Na^+/K^+ ATPase co-expression on agonist sensitivity: co-expression of Na^+/K^+ ATPase vs nAChRs alone, increase not removed by ouabain
From the text: To characterize the influence of Na^+/K^+ ATPase on nAChR function, nAChRs were expressed with or without Na^+/K^+ ATPase in Xenopus oocytes.
(B) Does-response curves for nicotine. (C) Does-response curves for imidacloprid. The curves from the oocytes expressing nAChRs (L. migratoria manilensis subunit α1 and R. norvegicus subunit β2) were indicated by open squares. The curves from the oocytes co-expressing nAChRs and Na^+/K^+ ATPase (subunit α1 and β1) were indicated by solid triangles (without ouabain) and open triangles (with ouabain).
(§1) The L. migratoria manilensis subunit α1 (KF813096) and subunit β1 (KF813099) of Na^+/k^+ ATPase, and subunit α1 (KF873578) of nAhCRs were subcloned into the expression vector pGH19 at sites of BamHIand XbaI, BamHI and ApaI, and EcoRI and XbaI, respectively. Rattus norvegicus β2 subunit (L31622) was also subcloned into the expression vector pGH19 as described previously. The cRNAs of all subunits were generated as described previously. Xenopus oocyte preparation and cRNA injection were performed as described previously. Electrophysiological recordings were made using a two-electrode voltage clamp (Multiclamp 700B Amplifier; Axon Instruments, Foster, CA, USA) as previously described. The measurement of the current of Na^+/K^+ ATPase was performed as described.
Differences in responses (currents), Imax and EC50 values were analyzed by one-way ANOVA with at least three repeats (different batches of oocytes from different frogs). Multiple comparisons between the groups were performed using S-N-K method. The level of significance for results was set at p < 0.05.

[2] = test system: Na^+/K^+ ATPase (α1 and β1); experiment: Pump-mediated steady-state current of Na+/K+ ATPase in Xenopus oocytes (two-electrode voltage clamp); assay type: cell-based, Locusta migratoria manilensis; conditions: for effect on Na^+/K^+ ATPase steady-state current directly: oocytes expressing Na^+/K^+ ATPase without nAChRs, 1 μM nicotine and 1 μM DHβE
Description: as §1

Chain of nAChRs (L. migratoria manilensis α1 and R. norvegicus β2) (W6ECM5 21-570): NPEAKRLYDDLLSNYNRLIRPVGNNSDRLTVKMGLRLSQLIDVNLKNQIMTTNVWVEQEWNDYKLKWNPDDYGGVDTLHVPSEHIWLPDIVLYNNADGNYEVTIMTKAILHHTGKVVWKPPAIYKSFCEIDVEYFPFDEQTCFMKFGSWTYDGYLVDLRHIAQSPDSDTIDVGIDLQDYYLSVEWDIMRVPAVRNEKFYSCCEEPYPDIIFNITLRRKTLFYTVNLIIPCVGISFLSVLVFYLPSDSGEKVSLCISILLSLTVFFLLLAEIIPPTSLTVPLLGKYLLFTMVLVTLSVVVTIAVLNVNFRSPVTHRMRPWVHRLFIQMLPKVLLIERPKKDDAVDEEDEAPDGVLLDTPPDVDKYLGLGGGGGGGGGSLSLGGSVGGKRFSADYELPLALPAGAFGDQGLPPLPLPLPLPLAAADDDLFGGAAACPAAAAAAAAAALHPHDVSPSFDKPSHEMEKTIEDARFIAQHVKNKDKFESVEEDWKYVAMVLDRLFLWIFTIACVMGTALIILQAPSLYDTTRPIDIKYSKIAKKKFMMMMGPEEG
Chain of nAChRs (L. migratoria manilensis α1 and R. norvegicus β2) (P12390 25-500): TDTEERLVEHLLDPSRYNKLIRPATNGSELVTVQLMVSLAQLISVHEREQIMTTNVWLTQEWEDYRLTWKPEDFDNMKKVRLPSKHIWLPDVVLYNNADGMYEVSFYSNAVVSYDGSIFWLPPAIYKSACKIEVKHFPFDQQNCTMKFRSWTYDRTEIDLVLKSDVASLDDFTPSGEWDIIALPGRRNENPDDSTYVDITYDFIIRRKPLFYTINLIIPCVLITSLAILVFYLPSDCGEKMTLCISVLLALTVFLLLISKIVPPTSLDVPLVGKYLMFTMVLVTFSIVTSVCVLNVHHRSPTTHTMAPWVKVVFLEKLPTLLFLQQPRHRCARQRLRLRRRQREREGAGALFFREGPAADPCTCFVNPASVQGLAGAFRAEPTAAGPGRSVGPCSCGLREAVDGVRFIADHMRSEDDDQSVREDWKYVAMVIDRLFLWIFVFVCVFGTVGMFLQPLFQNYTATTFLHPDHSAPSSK

SMILES	EC50 ([1]; oocytes only expressing nAChRs) [µM]	effect on Na^+/K^+ ATPase steady-state current directly [2]	effect of Na^+/K^+ ATPase co-expression on agonist sensitivity [1]	steady state current of Na^+/K^+ ATPase ([2]; oocytes co-expressing Na^+/K^+ ATPase and nAChRs, 1 μM nicotine, with 1 μM DHβE to suppress nAChR currents)
CC(=O)OCC[N+](C)(C)C [ACh, acetylcholine]	63.2 ± 5.14			
CO[C@H]1CC=C2CCN3CCC4=C(CC(=O)OC4)[C@]23C1 [DHβE, dihydro-β-erythroidine]		no effects		
O=[N+]([O-])NC1=NCCN1Cc1ccc(Cl)nc1 [imidacloprid]			increase agonist sensitivities	
CN1CCC[C@H]1c1cccnc1 [nicotine]		no effects	increase agonist sensitivities	increased significantly
